Assay results reported in patent US20250381249A1, “COMBINATION TREATMENT FOR RESISTANT HYPERTENSION” (Mayo Foundation for Medical Education and Research, priority 2018, published 2025).

Experiments:
Type in all cases: in vivo, rat
[1] = test system: spontaneously hypertensive rats (SHR); assay: Individual and combined effects of MANP and Fs on BP and aldosterone in spontaneously hypertensive rats (Example 1); details: for Mean arterial pressure (MAP) Δ: 60 minute period, mean±SD
[2] = test system: SHR; assay: Acute study in SHR, neurohumoral analysis (plasma and urinary cGMP, aldosterone); details: Fs5 and Fs10, 60 minutes
Experimental: Rats were anesthetized in an induction chamber with inhaled Isoflurane 2.5%. During this brief state of anesthesia, the rats were administered IP Inactin 100 mg/kg to maintain anesthesia. An oxygen mask was used until the end of the experiment. The carotid artery was cannulated for arterial pressure measurements and the right jugular vein was cannulated for infusions. Pressures were recorded and analyzed digitally (Sonometrics, London, Ontario, Canada). Via a small incision in the lower abdominal wall, the bladder was cannulated for urine sampling. Immediately after preparation, a 30-minute equilibration period was started with intravenous inulin infusion. […] Plasma and urinary cGMP (Enzo Life Sciences) and aldosterone (DRG International, Springfield, NJ) were determined by ELISA. Inulin concentrations were measured using the anthrone method, as described elsewhere (Fuhr et al. (1955) Klin. Wochenschr 33:729-730). GFR was calculated by inulin clearance. Electrolytes were measured by flame photometry (IL943, Instrumentation Laboratory, UK). All measurements were performed according to manufacturer instructions.

[3] = test system: SHR; assay: Acute study in SHR, renal function (GFR, urinary sodium and water excretion); details: Fs groups, 60 minutes, inulin clearance
Experimental: Acute Study Protocol in SHR: The cardiorenal and neurohumoral actions of MANP, Fs, or their combination were investigated in the genetic model of hypertension in male SHR (n=6 in each group). Rats were anesthetized in an induction chamber with inhaled Isoflurane 2.5%. During this brief state of anesthesia, the rats were administered IP Inactin 100 mg/kg to maintain anesthesia. An oxygen mask was used until the end of the experiment. The carotid artery was cannulated for arterial pressure measurements and the right jugular vein was cannulated for infusions. Pressures were recorded and analyzed digitally (Sonometrics, London, Ontario, Canada). […]
Neurohormonal and Electrolyte Analysis: Plasma ANP was measured by radioimmunoassay (Phoenix Pharmaceuticals) as an assessment of MANP, as the ANP RIA fully detects MANP (Burnett et al. (1986) Science 231(4742):1145-1147). Plasma and urinary cGMP (Enzo Life Sciences) and aldosterone (DRG International, Springfield, NJ) were determined by ELISA. Inulin concentrations were measured using the anthrone method, as described elsewhere (Fuhr et al. (1955) Klin. Wochenschr 33:729-730). GFR was calculated by inulin clearance. Electrolytes were measured by flame photometry (IL943, Instrumentation Laboratory, UK). […]
(§1) Statistical Analysis: Values are expressed as mean±standard error of mean (SEM). […]

[4] = test system: SHR; assay: Acute study in SHR, systemic hemodynamics (arterial BP); details: all three doses of Fs (1, 5, 10 mg/kg IV bolus)
Experimental: Acute Study Protocol in SHR: The cardiorenal and neurohumoral actions of MANP, Fs, or their combination were investigated in the genetic model of hypertension in male SHR (n=6 in each group). Rats were anesthetized in an induction chamber with inhaled Isoflurane 2.5%. During this brief state of anesthesia, the rats were administered IP Inactin 100 mg/kg to maintain anesthesia. An oxygen mask was used until the end of the experiment. The carotid artery was cannulated for arterial pressure measurements and the right jugular vein was cannulated for infusions. Pressures were recorded and analyzed digitally (Sonometrics, London, Ontario, Canada). Via a small incision in the lower abdominal wall, the bladder was cannulated for urine sampling.
Immediately after preparation, a 30-minute equilibration period was started with intravenous inulin infusion. […] After baseline measurements, rats were randomly assigned to ten groups: • Group 1—treated with MANP100; • Group 2—treated with MANP300; • Group 3—treated with MANP600; • Group 4—treated with Fs1; • Group 5—treated with Fs5; • Group 6—treated with Fs10; • Group 7—treated with MANP300+Fs5; • Group 8—treated with MANP300+Fs10; • Group 9—treated with MANP600+Fs10; and • Group 10—treated with inulin, normal saline, or inulin and normal saline. […]
as §1

levels of aldosterone compared to the control, MANP100 and MANP300 groups [2]: significantly higher | GFR compared to the no treatment control groups [3]: significantly lower
Structure (SMILES): NS(=O)(=O)c1cc(C(=O)O)c(NCc2ccco2)cc1Cl [Fs, furosemide]
Mean arterial pressure (MAP) Δ ([1]; Fs1: 1 mg/kg Fs single bolus): −40±9 mmHg | Mean arterial pressure (MAP) Δ ([1]; Fs5: 5 mg/kg Fs single bolus): −55±8 mmHg | Mean arterial pressure (MAP) Δ ([1]; Fs10: 10 mg/kg Fs single bolus): −63±11 mmHg | urinary flow ([1]; Fs, MANP and Fs+MANP groups, p<0.05): enhanced | BP compared with controls [4]: significantly reduced
